Test results: patent US20140275063A1, “NEW ENZYME INHIBITOR COMPOUNDS” (PROXIMAGEN LIMITED, priority 2011, published 2014)
Counter-ions that a name gives are not always drawn.

These compounds were tested against T1, human SSAO (Homo sapiens, UniProt Q16853) (assay: SSAO inhibitory activity (HRP-coupled hydrogen peroxide detection or 14C-benzaldehyde detection, benzylamine substrate)). Details: purified recombinantly expressed human SSAO, benzylamine as substrate, RT.
T1 construct: made in house
T1 sequence (Q16853 29-763 limits assumed): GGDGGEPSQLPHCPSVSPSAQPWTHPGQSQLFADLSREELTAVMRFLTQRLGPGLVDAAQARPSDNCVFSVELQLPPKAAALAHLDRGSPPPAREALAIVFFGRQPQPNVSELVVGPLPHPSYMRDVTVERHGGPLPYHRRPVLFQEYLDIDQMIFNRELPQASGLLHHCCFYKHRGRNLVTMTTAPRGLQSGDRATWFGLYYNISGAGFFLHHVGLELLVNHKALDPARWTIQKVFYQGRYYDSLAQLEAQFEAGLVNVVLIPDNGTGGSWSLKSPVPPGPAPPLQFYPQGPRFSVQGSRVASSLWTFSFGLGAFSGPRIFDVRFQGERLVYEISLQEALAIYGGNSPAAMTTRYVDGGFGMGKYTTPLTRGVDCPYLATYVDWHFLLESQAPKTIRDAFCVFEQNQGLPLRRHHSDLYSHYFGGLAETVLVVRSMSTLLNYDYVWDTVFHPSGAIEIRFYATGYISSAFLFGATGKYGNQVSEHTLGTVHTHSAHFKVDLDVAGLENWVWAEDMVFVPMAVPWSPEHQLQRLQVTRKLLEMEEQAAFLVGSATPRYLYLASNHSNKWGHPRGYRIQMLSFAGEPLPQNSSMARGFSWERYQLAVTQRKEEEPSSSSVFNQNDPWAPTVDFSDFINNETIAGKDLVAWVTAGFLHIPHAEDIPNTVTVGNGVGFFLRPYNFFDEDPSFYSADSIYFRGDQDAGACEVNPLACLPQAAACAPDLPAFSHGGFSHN
Type: biochemical
Method: All primary assays were performed at RT. with purified recombinantly expressed human SSAO. Enzyme was prepared essentially as described in Öhman et al. (Protein Expression and Purification 46 (2006) 321-331). In addition, secondary- and selectivity assays were performed using SSAO prepared from various tissues or purified rat recombinant SSAO. The enzyme activity was assayed with benzylamine as substrate by measuring either benzaldehyde production, using ^14C-labeled substrate, or by utilizing the production of hydrogen peroxide in a horseradish peroxidase (HRP) coupled reaction. Briefly, test compounds were dissolved in dimethyl sulfoxide (DMSO) to a concentration of 10 mM. Dose-response measurements were assayed by either creating 1:10 serial dilutions in DMSO to produce a 7 point curve or by making 1:3 serial dilutions in DMSO to produce 11 point curves. The top concentrations were adjusted depending on the potency of the compounds and subsequent dilution in reaction buffer yielded a final DMSO concentration ≦2%.
In a horseradish peroxidase (HRP) coupled reaction, hydrogen peroxide oxidation of 10-acetyl-3,7-dihydroxyphenoxazine produced resorufin, which is a highly fluorescent compound (Zhout and Panchuk-Voloshina. Analytical Biochemistry 253 (1997) 169-174; Amplex® Red Hydrogen Peroxideperoxidase Assay kit, Invitrogen A22188). Enzyme and compounds in 50 mM sodium phosphate, pH 7.4 were set to pre-incubate in flat-bottomed microtiter plates for approximately 15 minutes before initiating the reaction by addition of a mixture of HRP, benzylamine and Amplex reagent. Benzylamine concentration was fixed at a concentration corresponding to the Michaelis constant, determined using standard procedures. Fluorescence intensity was then measured at several time points during 1-2 hours, exciting at 544 nm and reading the emission at 590 nm. For the human SSAO assay final concentrations of the reagents in the assay wells were: SSAO enzyme 1 μg/ml, benzylamine 100 μM, Amplex reagent 20 μM, HRP 0.1 U/mL and varying concentrations of test compound. The inhibition was measured as % decrease of the signal compared to a control without inhibitor (only diluted DMSO). The background signal from a sample containing no SSAO enzyme was subtracted from all data points. Data was fitted to a four parameter logistic model and IC50 values were calculated using the Graph Pad Prism 4 or XLfit 4 programs.
SSAO activity was assayed using 14C-labeled benzylamine and analysed by measuring radioactive benzaldehyde. In a white 96-well optiplate (Packard), 20 μL of diluted test compound was pre-incubated at RT. with 20 μL SSAO enzyme for approximately 15 minutes with continuous agitation. All dilutions were made with PBS. The reaction was initiated by adding 20 μL of the benzylamine substrate solution containing [7-14C] Benzylamine hydrochloride (CFA589, GE Healthcare). The plate was incubated for 1 hour as above after which the reaction was stopped by acidification (10 μL 1 M HCl). Then 90 μL Micro Scint-E solution (Perkin-Elmer) was added to each well and the plate was continuously mixed for 15 minutes. Phase separation occurred instantly and activity was read in a Topcount scintillation counter (Perkin-Elmer). In the final reaction well, the human recombinant SSAO concentration was 10 μg/ml. In order to optimize sensitivity, the substrate concentration was decreased as compared to the HRP coupled assay in order to get a higher fraction of radioactive product. In the human SSAO assay, benzylamine concentration was 40 μM (0.2 μCi/mL). Data was analysed as above.

IC50	SMILES
< 100 nM	CN1CCC(CCNC(=O)N2CCC(c3cn(-c4ccc(Cl)cc4)c4cnccc34)CC2)CC1 [Compound 24, 4-[1-(4-Chlorophenyl)-1H-pyrrolo[2,3-c]pyridin-3-yl]-N-[2-(1-methylpiperidin-4-yl)ethyl] piperidine-1-carboxamide]
100 to 500 nM	CCNC(=O)N1CCN(CC2CN(c3nn(-c4ccc(Cl)cc4)c4cnccc34)CCO2)CC1 (stereo not drawn) [Compound 39, 4-({4-[1-(4-Chlorophenyl)-1H-pyrazolo[3,4-c]pyridin-3-yl]morpholin-2-yl}methyl)-N-ethylpiperazine-1-carboxamide]
< 100 nM	CN1CCN(C(=O)CC2COCCN2c2nn(-c3ccc(Cl)cc3)c3cnccc23)CC1 (stereo not drawn) [Compound 55, 2-{4-[1-(4-Chlorophenyl)-1H-pyrazolo[3,4-c]pyridin-3-yl]morpholin-3-yl}-1-(4-methylpiperazin-1-yl)ethan-1-one]
< 100 nM	CN1CCN(C)C(CNC(=O)N2CCC(c3cn(-c4ccc(Cl)cc4)c4cnccc34)CC2)C1 (stereo not drawn) [Compound 21, 4-[1-(4-Chlorophenyl)-1H-pyrrolo[2,3-c]pyridin-3-yl]-N-[(1,4-dimethyl-piperazin-2-yl)methyl] piperidine-1-carboxamide]
< 100 nM	CC(=O)OC1CCN(c2nn(-c3ccc(C)cc3)c3cnccc23)CC1 [Compound 52, 1-[1-(4-Methylphenyl)-1H-pyrazolo[3,4-c]pyridin-3-yl]piperidin-4-yl acetate]
< 100 nM	CC(=O)N1CCC(NC(=O)N2CCC(c3cn(-c4ccc(Cl)cc4)c4cnccc34)CC2)CC1 [Compound 10, N-(1-Acetylpiperidin-4-yl)-4-[1-(4-chlorophenyl)-1H-pyrrolo [2,3-c]pyridin-3-yl]piperidine-1-carboxamide]
100 to 500 nM	CN1CCC(CNC(=O)CC2COCCN2c2nn(-c3ccc(Cl)cc3)c3cnccc23)CC1 (stereo not drawn) [Compound 58, 2-{4-[1-(4-Chlorophenyl)-1H-pyrazolo[3,4-c]pyridin-3-yl]morpholin-3-yl}-N-[(1-methylpiperidin-4-yl)methyl] acetamide]
< 100 nM	NC(=O)NCC1CN(c2nn(-c3ccc(Cl)cc3)c3cnccc23)CCO1 (stereo not drawn) [Compound 59, ({4-[1-(4-Chlorophenyl)-1H-pyrazolo[3,4-c]pyridin-3-yl]morpholin-2-yl}methyl)urea]
< 100 nM	Clc1ccc(-n2nc(N3CCOC(CN4CCNCC4)C3)c3ccncc32)cc1 (stereo not drawn) [Compound 36, 4-[1-(4-Chlorophenyl)-1H-pyrazolo[3,4-c]pyridin-3-yl]-2-(piperazin-1-ylmethyl) morpholine trihydrochloride]
< 100 nM	CCN1CCC(CNC(=O)N2CCC(c3cn(-c4ccc(Cl)cc4)c4cnccc34)CC2)CC1 [Compound 12, 4-[1-(4-Chlorophenyl)-1H-pyrrolo[2,3-c]pyridin-3-yl]-N-[(1-ethylpiperidin-4-yl)methyl] piperidine-1-carboxamide]
100 to 500 nM	Clc1ccc(-n2cc(C3CCN(C4CCNCC4)CC3)c3ccncc32)cc1 [Compound 2, 4-[1-(4-Chlorophenyl)-1H-pyrrolo[2,3-c]pyridin-3-yl]-1-(piperidin-4-yl)piperidine]
100 to 500 nM	Cc1ccc(-n2nc(N3CCOC(CN4CCOCC4)C3)c3ccncc32)cc1 (stereo not drawn) [Compound 34, 4-[1-(4-Methylphenyl)-1H-pyrazolo[3,4-c]pyridin-3-yl]-2-(morpholin-4-ylmethyl)morpholine]
< 100 nM	CN1CCC(CN(C)C(=O)N2CCC(c3cn(-c4ccc(Cl)cc4)c4cnccc34)CC2)CC1 [Compound 13, 4-[1-(4-Chlorophenyl)-1H-pyrrolo[2,3-c]pyridin-3-yl]-N-methyl-N-[(1-methylpiperidin-4-yl)methyl] piperidine-1-carboxamide; formic acid]
< 100 nM	Clc1ccc(-n2nc(N3CCC(CN4CCOCC4)CC3)c3ccncc32)cc1 [Compound 48, 4-({1-[1-(4-Chlorophenyl)-1H-pyrazolo[3,4-c]pyridin-3-yl]piperidin-4-yl}methyl) morpholine dihydrochloride]
500 to 2500 nM	Clc1ccc(-n2nc(NCCN3CCOCC3)c3ccncc32)cc1 [Compound 44, 1-(4-Chlorophenyl)-N-[2-(morpholin-4-yl)ethyl]-1H-pyrazolo[3,4-c]pyridin-3-amine]
< 100 nM	CN1CCC(CNC(=O)N2CCN(c3nn(-c4ccc(Cl)cc4)c4cnccc34)CC2)CC1 [Compound 51, 4-[1-(4-Chlorophenyl)-1H-pyrazolo[3,4-c]pyridin-3-yl]-N-[(1-methylpiperidin-4-yl)methyl]piperazine-1-carboxamide]
< 100 nM	CN1CCN(CCNC(=O)N2CCC(c3cn(-c4ccc(Cl)cc4)c4cnccc34)CC2)CC1 [Compound 25, 4-[1-(4-Chlorophenyl)-1H-pyrrolo[2,3-c]pyridin-3-yl]-N-[2-(4-methylpiperazin-1-yl)ethyl] piperidine-1-carboxamide]
< 100 nM	O=C(NCC1CNCCO1)N1CCC(c2cn(-c3ccc(Cl)cc3)c3cnccc23)CC1 (stereo not drawn) [Compound 20, 4-[1-(4-Chlorophenyl)-1H-pyrrolo[2,3-c]pyridin-3-yl]-N-(morpholin-2-ylmethyl) pipendine-1-carboxamide]
< 100 nM	CC(C)N1CCC(CN(C)C(=O)N2CCC(c3cn(-c4ccc(Cl)cc4)c4cnccc34)CC2)CC1 [Compound 15, 4-[1-(4-Chlorophenyl)-1H-pyrrolo[2,3-c]pyridin-3-yl]-N-methyl-N-{[1-(propan-2-yl)piperidin-4-yl]methyl} piperidine-1-carboxamide]
< 100 nM	O=C(NCC1CCNCC1)N1CCC(c2cn(-c3ccc(Cl)cc3)c3cnccc23)CC1 [Compound 6, 4-[1-(4-Chlorophenyl)-1H-pyrrolo[2,3-c]pyridin-3-yl]-N-(piperidin-4-ylmethyl)piperidine-1-carboxamide]
< 100 nM	O=C1NCCN1CCNc1nn(-c2ccc(Cl)cc2)c2cnccc12 [Compound 64, 1-(2-{[1-(4-Chlorophenyl)-1H-pyrazolo[3,4-c]pyridin-3-yl]amino}ethyl)imidazolidin-2-one]
< 100 nM	O=C(CC1CCNCC1)N1CCC(c2cn(-c3ccc(Cl)cc3)c3cnccc23)CC1 [Compound 4, 1-{4-[1-(4-Chlorophenyl)-1H-pyrrolo[2,3-c]pyridin-3-yl]piperidin-1-yl}-2-(piperidin-4-yl)ethan-1-one]
100 to 500 nM	Clc1ccc(-n2nc(N3CCOCC3CN3CCOCC3)c3ccncc32)cc1 (stereo not drawn) [Compound 41, 4-[1-(4-Chlorophenyl)-1H-pyrazolo[3,4-c]pyridin-3-yl]-3-(morpholin-4-ylmethyl)morpholine]
< 100 nM	Cc1ccc(-n2nc(N3CCOC(CNC(=O)OC(C)C)C3)c3ccncc32)cc1 (stereo not drawn) [Compound 30, Propan-2-yl N-({4-[1-(4-methylphenyl)-1H-pyrazolo[3,4-c]pyridin-3-yl]morpholin-2-yl}methyl)carbamate]
